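Cultured in 96-well plates, cells were exposed to test compound for 48 hours across five concentrations. Abbreviation: GI50, concentration required for 50% inhibition of growth. TGI denotes the concentration required for complete inhibition of growth.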
What was measured:
Test in all cases: NCI anticancer screen, dose series, 48 h
[1] = tested on: MALME-3M melanoma
[2] = tested on: OVCAR-4 ovarian
[3] = tested on: NCI-H23 lung
[4] = tested on: M14 melanoma
[5] = tested on: K-562 leukemia
[6] = tested on: COLO 205 colon
[7] = tested on: RXF 393 renal
[8] = tested on: HT29 colon
[9] = tested on: HOP-62 NSCLC
[10] = tested on: SNB-19 CNS
[11] = tested on: TK-10 renal
[12] = tested on: SK-MEL-2 melanoma
[13] = tested on: SNB-75 CNS
[14] = tested on: SF-295 CNS
[15] = tested on: UO-31 renal
[16] = tested on: A549 NSCLC
[17] = tested on: OVCAR-8 ovarian
[18] = tested on: IGROV1 ovarian
[19] = tested on: MOLT-4 leukemia
[20] = tested on: CAKI-1 renal
[21] = tested on: HCT-116 colon
[22] = tested on: HCT-15 colon
[23] = tested on: NCI-H522 lung
[24] = tested on: SR leukemia
[25] = tested on: SK-MEL-5 melanoma
[26] = tested on: 786-0 renal
[27] = tested on: MDA-MB-231 breast
[28] = tested on: RPMI-8226 leukemia
[29] = tested on: BT-549 breast
[30] = tested on: U251 CNS
[31] = tested on: SK-OV-3 ovarian
[32] = tested on: LOX IMVI melanoma
[33] = tested on: SK-MEL-28 melanoma
[34] = tested on: PC-3 prostate
[35] = tested on: MCF7 breast
[36] = tested on: ACHN renal
[37] = tested on: SF-268 CNS
[38] = tested on: HL-60(TB) leukemia
[39] = tested on: NCI/ADR-RES ovarian
[40] = tested on: T-47D breast
[41] = tested on: UACC-62 melanoma
[42] = tested on: UACC-257 melanoma
[43] = tested on: HCC-2998 colon
[44] = tested on: HS 578T breast
[45] = tested on: A498 renal
[46] = tested on: KM12 colon
[47] = tested on: SW-620 colon
[48] = tested on: SN12C renal
[49] = tested on: DU-145 prostate
[50] = tested on: NCI-H460 lung
[51] = tested on: SF-539 CNS
[52] = tested on: MDA-MB-435
[53] = tested on: EKVX NSCLC
[54] = tested on: NCI-H226 lung
[55] = tested on: CCRF-CEM leukemia
[56] = tested on: OVCAR-5 ovarian
[57] = tested on: HOP-92 NSCLC

In the case of CCN(CC)CCCC(C)NCC(=O)NC(c1ccc2c(c1)OCO2)c1cc(Cl)c2cccnc2c1O (centres undefined), the GI50 [1] is reported as 1.68 µM, the TGI [1] is reported as 3.29 µM and the GI50 [2] is reported as 1.39 µM. For the same compound, the TGI [2] was 14.7 µM, the GI50 [3] was 2.99 µM and the TGI [3] was 11.2 µM. The GI50 [4] was 1.42 µM, the TGI [4] was 3.27 µM and the GI50 [5] was 0.895 µM. For the same compound, the TGI [5] was 9.33 µM, the GI50 [6] was 2.36 µM and the TGI [6] was 8.42 µM. It also gave a GI50 [7] of 2.33 µM, a TGI [7] of 10.3 µM and a GI50 [8] of 2.41 µM. It also gave a TGI [8] of 10.4 µM, a GI50 [9] of 1.56 µM and a TGI [9] of 6.88 µM. The GI50 [10] was 3.23 µM, the TGI [10] was 15.2 µM and the GI50 [11] was 3.36 µM. The TGI [11] was 15.1 µM, the GI50 [12] was 2.37 µM and the TGI [12] was 6.33 µM. For the same compound, the GI50 [13] was 2.18 µM, the TGI [13] was 8.73 µM and the GI50 [14] was 1.56 µM. For the same compound, the TGI [14] was 3.41 µM, the GI50 [15] was 2.02 µM and the TGI [15] was 7.16 µM. It also gave a GI50 [16] of 2.83 µM, a TGI [16] of 13.4 µM and a GI50 [17] of 2.56 µM. The TGI [17] was 13.1 µM, the GI50 [18] was 2.53 µM and the TGI [18] was 10.8 µM. For the same compound, the GI50 [19] was 0.626 µM, the TGI [19] was 11.2 µM and the GI50 [20] was 1.77 µM. The TGI [20] was 4.41 µM, the GI50 [21] was 1.41 µM and the TGI [21] was 11.2 µM. The GI50 [22] was 2.44 µM, the TGI [22] was 11.9 µM and the GI50 [23] was 2.36 µM. It also gave a TGI [23] of 6.97 µM, a GI50 [24] of 0.897 µM and a TGI [24] of 5.61 µM. It also gave a GI50 [25] of 1.67 µM, a TGI [25] of 3.11 µM and a GI50 [26] of 2.3 µM. For the same compound, the TGI [26] was 5.75 µM, the GI50 [27] was 1.35 µM and the TGI [27] was 11.9 µM. It also gave a GI50 [28] of 2.36 µM, a TGI [28] of 7.77 µM and a GI50 [29] of 4.78 µM. The TGI [29] was 17.1 µM, the GI50 [30] was 2.1 µM and the TGI [30] was 13 µM. For the same compound, the GI50 [31] was 2.93 µM, the TGI [31] was 8.45 µM and the GI50 [32] was 1.22 µM. For the same compound, the TGI [32] was 3.13 µM, the GI50 [33] was 1.47 µM and the TGI [33] was 3.08 µM. For the same compound, the GI50 [34] was 2.03 µM, the TGI [34] was 12 µM and the GI50 [35] was 1.59 µM. It also gave a TGI [35] of 10.6 µM, a GI50 [36] of 2.79 µM and a TGI [36] of 10.1 µM. The GI50 [37] was 2.21 µM, the TGI [37] was 10.6 µM and the GI50 [38] was 1.29 µM. For the same compound, the TGI [38] was 4.41 µM, the GI50 [39] was 3.31 µM and the TGI [39] was 15.5 µM. The GI50 [40] was 2.89 µM, the TGI [40] was 9.19 µM and the GI50 [41] was 1.83 µM. It also gave a TGI [41] of 3.6 µM, a GI50 [42] of 1.92 µM and a TGI [42] of 4.18 µM. It also gave a GI50 [43] of 1.73 µM, a TGI [43] of 4.13 µM and a GI50 [44] of 4.37 µM. It also gave a TGI [44] of 22.6 µM, a GI50 [45] of 2.35 µM and a TGI [45] of 6.69 µM. The GI50 [46] was 2.41 µM, the TGI [46] was 9.78 µM and the GI50 [47] was 2.32 µM. For the same compound, the TGI [47] was 11.9 µM, the GI50 [48] was 3.15 µM and the TGI [48] was 13.7 µM. For the same compound, the GI50 [49] was 2.63 µM, the TGI [49] was 15.7 µM and the GI50 [50] was 1.48 µM. It also gave a TGI [50] of 6.45 µM, a GI50 [51] of 1.85 µM and a TGI [51] of 4.05 µM. The GI50 [52] was 1.81 µM, the TGI [52] was 3.87 µM and the GI50 [53] was 1.65 µM. The TGI [53] was 11 µM, the GI50 [54] was 2.12 µM and the TGI [54] was 6.71 µM. For the same compound, the GI50 [55] was 0.909 µM, the TGI [55] was 12.2 µM and the GI50 [56] was 2.73 µM. For the same compound, the TGI [56] was 15.5 µM, the GI50 [57] was 1.62 µM and the TGI [57] was 8.17 µM.
